# According to US20060111305A1, “Metabolites of certain [1,4]diazepino[6,7,1-ij]quinoline derivatives and methods of preparation and use thereof” (Wyeth, priority 2004, published 2006):
# Where “and” joins values, the source holds several entries; their conditions need not be identical. Equal entries are not always repeated.
# Experiments:
# [1] = dogs; cited from earlier work
# [2] = biological target: T1, 5-HT2C (Homo sapiens, UniProt P28335); conditions: see WO03/091250 and US2004/0009970; cited from earlier work
# T1 sequence (P28335 33-458): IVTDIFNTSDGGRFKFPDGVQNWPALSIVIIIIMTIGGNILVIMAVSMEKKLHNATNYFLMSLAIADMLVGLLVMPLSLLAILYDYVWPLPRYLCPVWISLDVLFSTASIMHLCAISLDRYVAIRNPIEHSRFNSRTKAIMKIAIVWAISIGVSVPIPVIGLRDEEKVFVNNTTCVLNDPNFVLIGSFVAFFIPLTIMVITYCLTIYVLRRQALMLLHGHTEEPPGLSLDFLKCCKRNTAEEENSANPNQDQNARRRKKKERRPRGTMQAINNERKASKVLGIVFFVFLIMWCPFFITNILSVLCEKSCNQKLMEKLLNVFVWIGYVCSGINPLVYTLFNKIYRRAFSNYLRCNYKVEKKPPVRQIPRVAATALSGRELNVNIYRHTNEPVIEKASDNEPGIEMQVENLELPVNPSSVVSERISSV
# [3] = Incubation of [14C]DCDQ in dog fecal homogenate (stability); type: in vitro ADME; conditions: 37° C. for 24 hours
# Description: An average of 70.2% of the fecal radioactivity was extracted, while an average of 88.2% of the radioactivity was extracted from incubations of [^14C]DCDQ in blank fecal homogenate. In fecal extracts, DCDQ was major radioactive component, representing 54.4% to 96.7% of the total radioactivity. The metabolites detected in feces included hydroxy DCDQ (M2, M3 and M19), a keto DCDQ ([…]) and an uncharacterized peak (M20). The most abundant metabolite […] represented up to 16.4% of the total radioactivity in fecal extracts. The glucuronide of hydroxy DCDQ (M9) and the carbamoyl glucuronide of DCDQ (M6) were not detected in feces.
# [4] = Incubation of [14C]DCDQ in rat fecal homogenate (stability); type: in vitro ADME; conditions: 37° C. for 24 hours
# Description: Fecal elimination accounted for 21.1±2.1% of the dosed radioactivity recovered in the first 24 hours post-dosing for male rats. Extraction efficiency for the 8-24 hour fecal samples was 64.3%, while an average of 89.5% of the radioactivity was extracted from incubations of [^14C]DCDQ in control fecal homogenate. […] Metabolite profiles were not obtained from the 0-8 hour fecal samples because of low radioactivity (less than 0.1% of dosed radioactivity).
# [5] = rats, previous mass balance study, oral dose; cited from earlier work
# [6] = dog, enteric-coated capsule, mass balance study; cited from earlier work
# [7] = Dog blood and plasma radioactivity concentrations after single 15 mg/kg oral enteric-coated capsule of [14C]DCDQ; type: in vivo, beagle dogs; conditions: 15 mg/kg oral capsule; for Blood concentration of radioactivity, individual dogs 1-4 / Plasma concentration of radioactivity, individual dogs 1-4: 15 mg/kg
# Description: About 11 mg of [^14C]DCDQ hydrochloride and 940 mg of non-labeled DCDQ hydrochloride were dissolved in methanol and then evaporated under a nitrogen stream to dryness. Capsules (#2) were filled with accurate amounts (126.7-138.1 mg) of the mixed drug substance according to animal weights. The filled gelatin capsules were then enteric-coated manually. Four male beagle dogs, weighing from 7.6 to 9.8 kg at the time of dosing, were from an in-house colony. Each dog was given one enteric-coated capsule containing [^14C]DCDQ as the hydrochloride salt. Animals were fed two hours prior to dosing and provided Purina dog chow and water ad libitum, and were housed individually in metabolic cages. Blood samples were collected from the jugular vein at 2, 4, 8, 24 and 48 hour after dose administration into tubes containing potassium EDTA as the anticoagulant and then placed on ice. Aliquots of 50 μL were removed for combustion and determination of radioactivity content. Plasma was immediately obtained from the remaining blood by centrifugation at 4° C. Urine samples were collected into tubes on dry ice at intervals of 0-8, 8-24 and 24-48 hour post-dose. Fecal samples were collected at intervals of 0-8, 8-24 and 24-48 hour post-dose at room temperature, and were homogenized. The biological specimens were stored at approximately −70° C. until analysis. Aliquots of 50 μL of plasma and 100-200 μL of urine were analyzed for radioactivity concentrations. Radioactivity determinations of dose, plasma, and urine were made with a Tri-Carb Model 3100 TR/LL LSC using 5-10 mL of Ultima Gold as the scintillation fluid. Feces were weighed and homogenized in water at a volume-to-weight ratio of about 5:1. Aliquots of blood (200 μL) and fecal homogenates (0.25-0.53 gram) were placed on Combusto-cones with Combusto-pads and combusted. A model 307 Tri-Carb sample oxidizer, equipped with an Oximate-80 robotic automatic sampler (Perkin Elmer), was used for combustion of blood and fecal samples. The liberated ^14CO2 was trapped with Carbo-Sorb E carbon dioxide absorber, mixed with PermaFluor® E+ liquid scintillation cocktail, and counted on a Tri-Carb Model 3100 TR/LL liquid scintillation counter (Perkin Elmer). The efficiency of combustion was 98.9%.
smiles,measurement,setting,value
"c1cc2c3c(c1)[C@H]1CCC[C@H]1CN3CCNC2 [DCDQ, (9aR,12aS)-4,5,6,7,9,9a,10,11,12,12a-decahydro-cyclopenta[c][1,4]diazepine[6,7,1-ij]quinoline, reference compound]",oral bioavailability,[1],approximately 25.4%
same,5-HT2C agonist activity,[2],potent 5-HT2C agonist
c1cc2c3c(c1)[C@H]1CCC[C@H]1CN3CCNC2 [[^14C]DCDQ],degradation in fecal homogenate,[3],no obvious degradation
same,degradation in fecal homogenate,[4],no detectable degradation
same,dosed radioactivity recovered in urine,[5],64.3%
same,dose recovered in urine,[6],32.7%
same,"Blood concentration of radioactivity, Mean ± SD",[7]; 2 hr,262 ± 391 ng equivalents/mL
same,"Plasma concentration of radioactivity, Mean ± SD",[7]; 2 hr,422 ± 573 ng equivalents/mL
same,"Blood concentration of radioactivity, individual dogs 1-4",[7]; 2 hr,161 ng equivalents/mL and 840 ng equivalents/mL and 48.6 ng equivalents/mL and 0.00 ng equivalents/mL
same,"Plasma concentration of radioactivity, individual dogs 1-4",[7]; 2 hr,360 ng equivalents/mL and 1250 ng equivalents/mL and 74.4 ng equivalents/mL and 4.13 ng equivalents/mL
same,"Blood concentration of radioactivity, Mean ± SD",[7]; 4 hr,372 ± 505 ng equivalents/mL
same,"Plasma concentration of radioactivity, Mean ± SD",[7]; 4 hr,564 ± 748 ng equivalents/mL
same,"Blood concentration of radioactivity, individual dogs 1-4",[7]; 4 hr,319 ng equivalents/mL and 1100 ng equivalents/mL and 66.7 ng equivalents/mL and 0.90 ng equivalents/mL
same,"Plasma concentration of radioactivity, individual dogs 1-4",[7]; 4 hr,500 ng equivalents/mL and 1640 ng equivalents/mL and 112 ng equivalents/mL and 4.13 ng equivalents/mL
same,"Blood concentration of radioactivity, Mean ± SD",[7]; 8 hr,347 ± 378 ng equivalents/mL
same,"Plasma concentration of radioactivity, Mean ± SD",[7]; 8 hr,528 ± 566 ng equivalents/mL
same,"Blood concentration of radioactivity, individual dogs 1-4",[7]; 8 hr,331 ng equivalents/mL and 878 ng equivalents/mL and 176 ng equivalents/mL and 5.41 ng equivalents/mL
same,"Plasma concentration of radioactivity, individual dogs 1-4",[7]; 8 hr,541 ng equivalents/mL and 1310 ng equivalents/mL and 256 ng equivalents/mL and 4.13 ng equivalents/mL
same,"Blood concentration of radioactivity, Mean ± SD",[7]; 24 hr,920 ± 341 ng equivalents/mL
same,"Plasma concentration of radioactivity, Mean ± SD",[7]; 24 hr,1340 ± 508 ng equivalents/mL
same,"Blood concentration of radioactivity, individual dogs 1-4",[7]; 24 hr,980 ng equivalents/mL and 782 ng equivalents/mL and 1360 ng equivalents/mL and 556 ng equivalents/mL
same,"Plasma concentration of radioactivity, individual dogs 1-4",[7]; 24 hr,1530 ng equivalents/mL and 1110 ng equivalents/mL and 1940 ng equivalents/mL and 769 ng equivalents/mL
same,"Blood concentration of radioactivity, Mean ± SD",[7]; 48 hr,343 ± 79.9 ng equivalents/mL
same,"Plasma concentration of radioactivity, Mean ± SD",[7]; 48 hr,507 ± 135 ng equivalents/mL
same,"Blood concentration of radioactivity, individual dogs 1-4",[7]; 48 hr,333 ng equivalents/mL and 434 ng equivalents/mL and 364 ng equivalents/mL and 241 ng equivalents/mL
same,"Plasma concentration of radioactivity, individual dogs 1-4",[7]; 48 hr,504 ng equivalents/mL and 669 ng equivalents/mL and 517 ng equivalents/mL and 339 ng equivalents/mL
